Laboratory results from patent US20240197729A1, “ALK-5 Inhibitors and Uses Thereof” (Sumitomo Pharma Oncology, Inc., priority 2021, published 2024).
Entries after “also recorded” stand apart in the source; their conditions may differ.

What was measured:
p-SMAD2 (Ser465/Ser467) = assay: Longitudinal PK/PD analysis of p-SMAD2 in A549 xenograft mouse model; format: in vivo, mice; conditions: for percent p-SMAD2 levels compared to vehicle group: 50 mg/kg per oral gavage, normalized to GAPDH; for drug tumor and plasma exposure in vivo / time of peak p-SMAD2 suppression post dosing: single dose 50 mg/kg per oral gavage; for drug tumor and plasma exposure in vivo: A549 xenograft mice
Procedure: Accordingly, a longitudinal, twenty-two-hour, one-dose study was performed using Compound 04 and the commercially available ALK5 inhibitor vactosertib in an A549 xenograft mouse model. In this study, p-SMAD2 (Ser465/Ser467) and a housekeeping gene (GAPDH) were measured at ten timepoints from zero (established using vehicle-treated animals) up to twenty-two hours post dose for a single drug dose of fifty milligrams per kilogram per subject (three subjects per dosing group).
For this study, xenografts were prepared and implanted in mice as follows. At five weeks of age, female athymic nude mice (purchased from Charles River) were injected with approximately 2.1 million A549 cells (ATCC, CCL-185). Cells were harvested and resuspended in plain RPMI media (no phenol red added) and Matrigel (Corning 356237) at a one to one ratio, and two hundred-microliters of the cell suspension were injected into the right hind flank of each mouse. Tumors were measured every three days by caliper, and as tumors reached an average of seventy-eighty millimeters cubed, mice were randomized in groups of three subjects. Each of the test compounds (vactosertib, Compound 04) was resuspended in 1-methyl-2-pyrrolidinone (Sigma, 494496) (10%) plus 20% Solutol (Sigma 42966) in water (90%). The drug suspensions were sonicated for fifteen minutes to generate a fine particle suspension before being given to the test subjects. Subjects were dosed (per oral gavage) with the suspension. A vehicle control group with three mice was used to establish the baseline and timepoint zero of phospho-SMAD-2 in the tumor xenograft. The test compounds were administered to the respective subject groups at fifty milligrams per kilogram.
Samples were obtained post administration of test compounds at 30 minutes, one hour, two hours, four hours, six hours, eight hours, twelve hours, sixteen hours and twenty-two hours. Tumors were harvested, snap frozen and stored at negative eighty degrees Celsius until further processing. Plasma was collected from all animals by collecting whole blood via cardiac puncture, followed by centrifugation in tubes containing EDTA (BD, microtainer tubes, 365974). A group of three mice receiving vehicle only served as the zero timepoint for both drug groups. The phospho SMAD-2 levels were determined using the Bio-Plex Pro™ Phospho-Smad2 (Ser465/Ser467) Set (BioRad 171V50019M). The phospho SMAD-2 levels were normalized to GAPDH (MILLIPLEX MAP GAPDH Total Magnetic Bead MAPmate™, Millipore 46-667MAG) levels from each sample. All analytes were analyzed in a multiplex fashion with the Bio-Plex Pro Cell Signaling Reagent Kit (BioRad 171304006M). Frozen tumor samples (fifteen to thirty milligrams) were lysed in 100 μl lysis buffer, processed in a bead mill tube, and centrifuged. The resulting lysate was used at 1:50 dilution for the assay according to the manufacturer's instructions. Bead suspension was analyzed using the Luminex system (MAGPIX).
The study described in Example 8 was expanded to include Compound 01. Accordingly, using the same procedure for preparing test subjects and the ability of compounds tested to suppress TGF-beta signaling over time (as described in Example 8), a longitudinal, twenty-two-hour, one-dose study was performed using Compound 01, and the data were plotted alongside data obtained in Example 8 from Compound 04 and commercially available ALK5 inhibitor vactosertib, which were replotted in accordance with Example 10. For this expansion of the longitudinal study, p-SMAD2 (Ser465/Ser467) and housekeeping gene GAPDH were measured at ten timepoints from zero up to twenty-two hours post a single drug dose of fifty milligrams per kilogram per animal (three animals per group). A vehicle only treatment group of three mice was used to establish the baseline levels of p-SMAD2 in A549 xenograft tumor samples.
As in Example 8, xenografts were prepared and implanted in mice as follows. […]

[1] = tested on: phospho-SMAD-2 (Ser465/Ser467); assay: A549 xenograft assay, p-SMAD2; format: in vivo, mice; conditions: for Average % p-SMAD2 (Ser 465/467) of vehicle: tumors 4 h after dosing; for efficacious dose derived from p-SMAD2 inhibition in the A549 xenograft mouse model: per oral gavage
From the text: To test compounds for inhibition of in vivo on-target activity (ALK5/TGF-bR1 inhibition) as well as potential Janus Kinase (JAK) signaling off-target activity, the A549 murine xenograft model was utilized. An ALK5 inhibitor (e.g., vactosertib) is expected to reduce the amount of the TGF-beta signaling molecule phospho-SMAD-2 (pSMAD2) in the A549 xenograft cells. The TGF-beta-mediated phosphorylation of SMAD2 in A549 cells takes place at amino acid residue four hundred and sixty-five and four hundred and sixty-seven (both are serine residues). A JAK inhibitor (e.g., ruxolitinib) is expected to reduce the phosphorylation of signal transducer and activator of transcription (STAT) proteins such as STAT3 at amino acid residue 705 (tyrosine).
At eight weeks of age, female athymic nude mice (purchased from Charles River) were injected with approximately 3.5 million A549 cells (ATCC, CCL-185). Specifically, cells were harvested and resuspended in plain RPMI media (no phenol red added) and Matrigel (Corning 356237) at a one to one ratio, and two hundred-microliters were injected into the right hind flank of each mouse. Tumors were measured every three days by caliper and as tumors reached an average of seventy-eighty millimeters cubed, mice were randomized in groups of three. All compounds were resuspended in 1-methyl-2-pyrrolidinone (Sigma 494496) (10%) plus 20% Solutol (Sigma 42966) in water (90%). Vactosertib and ruxolitinib were included as controls as ALK5 signaling inhibitor and JAK signaling inhibitor, respectively. Both controls were given at seventy-five milligrams per kilogram to three mice. The drug suspensions were sonicated for fifteen minutes to generate a fine particle suspension before being given to the mice. Mice were dosed (per oral gavage) with drug at one hundred, seventy-five, fifty, or ten milligrams per kilogram, with three mice per group. A vehicle control group with three mice was used to establish the baseline level of phospho-SMAD-2 in the tumor xenograft.
Four hours after drug administration, tumors were harvested, snap frozen and stored at negative eighty degrees Celsius until further processing. The phospho-SMAD-2 levels were determined using the Bio-Plex Pro™ Phospho-Smad2 (Ser465/Ser467) Set (BioRad 171V50019M). The phospho STAT3 levels were determined using the bead/antibody set from the MILLIPLEXMAP STAT Cell Signaling Magnetic Bead 5-Plex Kit (Millipore 48-610MAG). Both phospho SMAD-2 levels and phospho STAT3 levels were normalized to ß-Tubulin (MILLIPLEX MAP ß-Tubulin Total Magnetic Bead MAPmate™, Millipore 46-713MAG) or GAPDH (MILLIPLEX MAP GAPDH Total Magnetic Bead MAPmate™, Millipore 46-667MAG) levels from each sample. All analytes were analyzed in a multiplex fashion with the Bio-Plex Pro Cell Signaling Reagent Kit (BioRad 171304006M). Briefly, frozen tumor (fifteen to thirty milligrams) was lysed in 100 μl lysis buffer, processed in bead mill tube, and centrifuged. The resulting lysate was used at 1:50 dilution for the assay according to the manufacturer's instructions. Bead suspension was analyzed using the Luminex system (MAGPIX).

SMILES | percent p-SMAD2 levels compared to vehicle group (p-SMAD2 (Ser465/Ser467); 0.5 h post dosing) | percent p-SMAD2 levels compared to vehicle group (p-SMAD2 (Ser465/Ser467); 1 h post dosing) | percent p-SMAD2 levels compared to vehicle group (p-SMAD2 (Ser465/Ser467); 2 h post dosing) | percent p-SMAD2 levels compared to vehicle group (p-SMAD2 (Ser465/Ser467); 4 h post dosing) | percent p-SMAD2 levels compared to vehicle group (p-SMAD2 (Ser465/Ser467); 6 h post dosing) | percent p-SMAD2 levels compared to vehicle group (p-SMAD2 (Ser465/Ser467); 8 h post dosing) | percent p-SMAD2 levels compared to vehicle group (p-SMAD2 (Ser465/Ser467); 12 h post dosing) | percent p-SMAD2 levels compared to vehicle group (p-SMAD2 (Ser465/Ser467); 16 h post dosing) | percent p-SMAD2 levels compared to vehicle group (p-SMAD2 (Ser465/Ser467); 22 h post dosing) | drug tumor and plasma exposure in vivo (p-SMAD2 (Ser465/Ser467); 50 mg/kg) | Average % p-SMAD2 (Ser 465/467) of vehicle ([1]; 75 mg/kg per oral gavage) | Average % p-SMAD2 (Ser 465/467) of vehicle ([1]; 10 mg/kg per oral gavage) | Average % p-SMAD2 (Ser 465/467) of vehicle ([1]; 50 mg/kg per oral gavage) | Average % p-SMAD2 (Ser 465/467) of vehicle ([1]; 100 mg/kg per oral gavage) | time of peak p-SMAD2 suppression post dosing (p-SMAD2 (Ser465/Ser467)) | drug tumor and plasma exposure in vivo (p-SMAD2 (Ser465/Ser467); listed as compound 04, 50 mg/kg) | efficacious dose derived from p-SMAD2 inhibition in the A549 xenograft mouse model [1] | inhibition of the biomarker p-SMAD2 ([1]; seventy-five milligrams per kilogram) | drug tumor and plasma exposure in vivo (p-SMAD2 (Ser465/Ser467))
Cc1cccc(-c2[nH]c(CNc3ccccc3F)nc2-c2ccc3ncnn3c2)n1 [Vactosertib, vactosertib, reference compound] | 53% | 14% | 21% | 32% | 67% | 65% | 89.1% | 74.6% | 101.1% | quickly cleared from the system; also recorded: quickly cleared from the mice | 32% |  |  |  |  |  |  |  | 
Cc1cccc2c(Nc3ccnc(Nc4ccc(N5CCOCC5)cc4)c3)cnnc12 [Compound 05, N4-(8-methylcinnolin-4-yl)-N2-[4-(morpholin-4-yl)phenyl]pyridine-2,4-diamine] |  |  |  |  |  |  |  |  |  |  | 11% | 136% | 74% | 13% |  |  |  |  | 
Clc1cccc2c(Nc3ccnc(Nc4cccc(N5CCOCC5)c4)c3)cnnc12 [Compound 04, N4-(8-chlorocinnolin-4-yl)-N2-[3-(morpholin-4-yl)phenyl]pyridine-2,4-diamine] | 55% | 24% |  | 14% | 22% | 57% | 95.0% | 81.9% | 91.4% | longer drug tumor and plasma exposure in vivo than vactosertib | 6% | 69% | 13% | 7% | two | longer drug tumor and plasma exposure in vivo | fifty | 94% | 
Cc1nn(CC(F)(F)F)cc1Nc1cc(Nc2cnnc3c(C)cccc23)ccn1 [Compound 01, N2-[3-methyl-1-(2,2,2-trifluoroethyl)-1H-pyrazol-4-yl]-N4-(8-methylcinnolin-4-yl)pyridine-2,4-diamine] | 57% | 37% | 24% | 30% | 59% | 76% | 89.2% | 82.1% | 86.5% |  | 13% | 97% | 33% | 8% | 2 h |  | seventy-five |  | longer drug tumor and plasma exposure in vivo
